# Test results: patent US9963456B2, “Pyrrolopyrimidine compound or salt thereof and compositions containing the pyrrolopyrimidine compound or salt thereof” (TAIHO PHARMACEUTICAL CO., LTD., priority 2014, dated 2018)
# Molecular target: NAE (heterodimer of APPBP1 and UBA3) (Homo sapiens (Human), UniProt Q8TBC4)
# Assay: Nedd8 conjugation inhibitory activity (AlphaScreen assay)
# Type: biochemical
# Details: purified NAE, GST-UBC12, Biotin-Nedd8, ATP
# Chain of NAE (heterodimer of APPBP1 and UBA3) (Q8TBC4 whole entry): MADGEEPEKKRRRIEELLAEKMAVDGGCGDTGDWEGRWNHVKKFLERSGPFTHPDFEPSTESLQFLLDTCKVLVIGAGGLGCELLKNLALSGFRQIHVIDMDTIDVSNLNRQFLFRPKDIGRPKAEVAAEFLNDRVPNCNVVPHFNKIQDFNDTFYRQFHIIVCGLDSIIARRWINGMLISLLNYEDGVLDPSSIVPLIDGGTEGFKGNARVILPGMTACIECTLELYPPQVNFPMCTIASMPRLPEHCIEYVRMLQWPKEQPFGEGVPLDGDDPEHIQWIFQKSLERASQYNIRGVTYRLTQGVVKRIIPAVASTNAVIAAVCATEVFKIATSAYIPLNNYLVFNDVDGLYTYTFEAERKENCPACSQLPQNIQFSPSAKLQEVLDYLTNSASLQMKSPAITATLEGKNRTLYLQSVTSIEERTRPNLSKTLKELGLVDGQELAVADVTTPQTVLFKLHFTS
# Chain of NAE (heterodimer of APPBP1 and UBA3) (Q13564 whole entry partner): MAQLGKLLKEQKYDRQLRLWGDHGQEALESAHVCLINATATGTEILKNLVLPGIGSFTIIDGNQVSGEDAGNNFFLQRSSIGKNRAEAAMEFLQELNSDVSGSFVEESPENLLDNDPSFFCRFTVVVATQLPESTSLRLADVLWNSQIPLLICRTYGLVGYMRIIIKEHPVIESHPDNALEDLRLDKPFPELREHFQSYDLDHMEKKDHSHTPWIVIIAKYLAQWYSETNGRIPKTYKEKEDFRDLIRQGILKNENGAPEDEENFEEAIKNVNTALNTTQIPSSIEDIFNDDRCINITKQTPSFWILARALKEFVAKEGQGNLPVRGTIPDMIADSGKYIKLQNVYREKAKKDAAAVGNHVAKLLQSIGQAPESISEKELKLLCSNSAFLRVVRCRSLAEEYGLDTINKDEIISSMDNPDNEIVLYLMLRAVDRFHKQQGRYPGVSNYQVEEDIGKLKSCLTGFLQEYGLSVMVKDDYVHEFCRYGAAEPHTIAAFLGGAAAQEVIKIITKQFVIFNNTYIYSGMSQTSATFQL
row,Compound,IC50
1,"Nc1ncnc2c1c(C#Cc1ccnc3ccccc13)cn2[C@@H]1O[C@H](CNS(N)(=O)=O)[C@@H](O)[C@H]1O [Example 8, 4-[2-[4-Amino-7-[(2R,3R,4S,5R)-3,4-dihydroxy-5-[(sulfamoylamino)methyl]tetrahydrofuran-2-yl]pyrrolo[2,3-d]pyrimidin-5-yl]ethynyl]quinoline]",0.029 µM
2,"Nc1ncnc2c1c(C#Cc1nccc3ccccc13)cn2[C@@H]1O[C@H](CNS(N)(=O)=O)[C@@H](O)[C@H]1O [Example 11, 1-[2-[4-Amino-7-[(2R,3R,4S,5R)-3,4-dihydroxy-5-[(sulfamoylamino)methyl]tetrahydrofuran-2-yl]pyrrolo[2,3-d]pyrimidin-5-yl]ethynyl]isoquinoline]",0.0078 µM
3,"COc1cccc(OC)c1C#Cc1cn([C@@H]2O[C@H](CNS(N)(=O)=O)[C@@H](O)[C@H]2O)c2ncnc(N)c12 [Example 16, 4-Amino-7-[(2R,3R,4S,5R)-3,4-dihydroxy-5-[(sulfamoylamino)methyl]tetrahydrofuran-2-yl]-5-[2-(2,6-dimethoxyphenyl)ethynyl]pyrrolo[2,3-d]pyrimidine]",0.0096 µM
4,"Nc1ncnc2c1c(C#Cc1cccc3cccnc13)cn2[C@@H]1O[C@H](CNS(N)(=O)=O)[C@@H](O)[C@H]1O [Example 17, 8-[2-[4-Amino-7-[(2R,3R,4S,5R)-3,4-dihydroxy-5-[(sulfamoylamino)methyl]tetrahydrofuran-2-yl]pyrrolo[2,3-d]pyrimidin-5-yl]ethynyl]quinoline]",0.0054 µM
5,"Nc1ncnc2c1c(C#Cc1ccccc1OC(F)F)cn2[C@@H]1O[C@H](CNS(N)(=O)=O)[C@@H](O)[C@H]1O [Example 18, 4-Amino-5-[2-[2-(difluoromethoxy)phenyl]ethynyl]-7-[(2R,3R,4S,5R)-3,4-dihydroxy-5-[(sulfamoylamino)methyl]tetrahydrofuran-2-yl]pyrrolo[2,3-d]pyrimidine]",0.027 µM
6,"Nc1ncnc2c1c(C#Cc1ccc3[nH]ncc3n1)cn2[C@@H]1O[C@H](CNS(N)(=O)=O)[C@@H](O)[C@H]1O [Example 19, 4-Amino-7-[(2R,3R,4S,5R)-3,4-dihydroxy-5-[(sulfamoylamino)methyl]tetrahydrofuran-2-yl]-5-[2-(1H-pyrazolo[4,3-b]pyridin-5-yl)ethynyl]pyrrolo[2,3-d]pyrimidine]",0.028 µM
7,"Nc1ccc(C#Cc2cn([C@@H]3O[C@H](CNS(N)(=O)=O)[C@@H](O)[C@H]3O)c3ncnc(N)c23)c(F)c1 [Example 20, 4-Amino-5-[2-(4-amino-2-fluoro-phenyl)ethynyl]-7-[(2R,3R,4S,5R)-3,4-dihydroxy-5-[(sulfamoylamino)methyl]tetrahydrofuran-2-yl]pyrrolo[2,3-d]pyrimidine]",0.0091 µM
8,"Nc1ncnc2c1c(C#CC1CCc3ccccc31)cn2[C@@H]1O[C@H](CNS(N)(=O)=O)[C@@H](O)[C@H]1O (stereo partly drawn) [Example 21, 4-Amino-7-[(2R,3R,4S,5R)-3,4-dihydroxy-5-[(sulfamoylamino)methyl]tetrahydrofuran-2-yl]-5-(2-indan-1-ylethynyl)pyrrolo[2,3-d]pyrimidine]",0.015 µM
9,"CCNc1cc(F)c(C#Cc2cn([C@@H]3O[C@H](CNS(N)(=O)=O)[C@@H](O)[C@H]3O)c3ncnc(N)c23)c(F)c1 [Example 26, 4-Amino-7-[(2R,3R,4S,5R)-3,4-dihydroxy-5-[(sulfamoylamino)methyl]tetrahydrofuran-2-yl]-5-[2-[4-(ethylamino)-2,6-difluoro-phenyl]ethynyl]pyrrolo[2,3-d]pyrimidine]",0.012 µM
10,"Nc1ncnc2c1c(C#Cc1c(F)cc(N3CC[C@@H](O)C3)cc1F)cn2[C@@H]1O[C@H](CNS(N)(=O)=O)[C@@H](O)[C@H]1O [Example 30, 4-Amino-5-[2-[2,6-difluoro-4-[(3R)-3-hydroxypyrrolidin-1-yl]phenyl]ethynyl]-7-[(2R,3R,4S,5R)-3,4-dihydroxy-5-[(sulfamoylamino)methyl]tetrahydrofuran-2-yl]pyrrolo[2,3-d]pyrimidine]",0.027 µM
11,"CCOc1cc(N2CCOCC2)cc(F)c1C#Cc1cn([C@@H]2O[C@H](CNS(N)(=O)=O)[C@@H](O)[C@H]2O)c2ncnc(N)c12 [Example 34, 4-[4-[2-[4-Amino-7-[(2R,3R,4S,5R)-3,4-dihydroxy-5-[(sulfamoylamino)methyl]tetrahydrofuran-2-yl]pyrrolo[2,3-d]pyrimidin-5-yl]ethynyl]-3-ethoxy-5-fluoro-phenyl]morpholine]",0.024 µM
12,"CCOc1cc(F)cc(F)c1C#Cc1cn([C@@H]2O[C@H](CNS(N)(=O)=O)[C@@H](O)[C@H]2O)c2ncnc(N)c12 [Example 35, 4-Amino-7-[(2R,3R,4S,5R)-3,4-dihydroxy-5-[(sulfamoylamino)methyl]tetrahydrofuran-2-yl]-5-[2-(2-ethoxy-4,6-difluoro-phenyl)ethynyl]pyrrolo[2,3-d]pyrimidine]",0.0041 µM
13,"Nc1ncnc2c1c(C#Cc1c(F)cc(N3CCSCC3)cc1F)cn2[C@@H]1O[C@H](CNS(N)(=O)=O)[C@@H](O)[C@H]1O [Example 37, 4-[4-[2-[4-Amino-7-[(2R,3R,4S,5R)-3,4-dihydroxy-5-[(sulfamoylamino)methyl]tetrahydrofuran-2-yl]pyrrolo[2,3-d]pyrimidin-5-yl]ethynyl]-3,5-difluoro-phenyl]thiomorpholine]",0.011 µM
14,"Nc1ncnc2c1c(C#Cc1c(F)cc(N3CCCC(O)C3)cc1F)cn2[C@@H]1O[C@H](CNS(N)(=O)=O)[C@@H](O)[C@H]1O (stereo partly drawn) [Example 38, 4-Amino-5-[2-[2,6-difluoro-4-(3-hydroxy-1-piperidyl)phenyl]ethynyl]-7-[(2R,3R,4S,5R)-3,4-dihydroxy-5-[(sulfamoylamino)methyl]tetrahydrofuran-2-yl]pyrrolo[2,3-d]pyrimidine]",0.0035 µM
15,"Nc1ncnc2c1c(C#Cc1c(F)cc(N3CCC(=O)CC3)cc1F)cn2[C@@H]1O[C@H](CNS(N)(=O)=O)[C@@H](O)[C@H]1O [Example 42, 4-Amino-5-[2-[2,6-difluoro-4-(4-oxo-1-piperidyl)phenyl]ethynyl]-7-[(2R,3R,4S,5R)-3,4-dihydroxy-5-[(sulfamoylamino)methyl]tetrahydrofuran-2-yl]pyrrolo[2,3-d]pyrimidine]",0.0043 µM
16,"Nc1ncnc2c1c(C#Cc1ccccn1)cn2[C@@H]1O[C@H](CNS(N)(=O)=O)[C@@H](O)[C@H]1O [Example 44, 4-Amino-7-[(2R,3R,4S,5R)-3,4-dihydroxy-5-[(sulfamoylamino)methyl]tetrahydrofuran-2-yl]-5-[2-(2-pyridyl)ethynyl]pyrrolo[2,3-d]pyrimidine]",0.029 µM
17,"N#Cc1ccccc1C#Cc1cn([C@@H]2O[C@H](CNS(N)(=O)=O)[C@@H](O)[C@H]2O)c2ncnc(N)c12 [Example 49, 4-Amino-5-[2-(2-cyanophenyl)ethynyl]-7-[(2R,3R,4S,5R)-3,4-dihydroxy-5-[(sulfamoylamino)methyl]tetrahydrofuran-2-yl]pyrrolo[2,3-d]pyrimidine]",0.018 µM
18,"COc1cccc(F)c1C#Cc1cn([C@@H]2O[C@H](CNS(N)(=O)=O)[C@@H](O)[C@H]2O)c2ncnc(N)c12 [Example 51, 4-Amino-7-[(2R,3R,4S,5R)-3,4-dihydroxy-5-[(sulfamoylamino)methyl]tetrahydrofuran-2-yl]-5-[2-(2-fluoro-6-methoxy-phenyl)ethynyl]pyrrolo[2,3-d]pyrimidine]",0.0035 µM
